Assay results reported in the supplement of paper PMC9663587.

Key:
[1] = compound: CCN1CCN(Cc2ccc(Nc3ncc(F)c(-c4cc(F)c5nc(C)n(C(C)C)c5c4)n3)nc2)CC1
Taselisib/GDC0032 = compound: Cc1nc(-c2cn3c(n2)-c2ccc(-c4cnn(C(C)(C)C(N)=O)c4)cc2OCC3)n(C(C)C)n1 [Taselisib/GDC0032]
Pictilisib/GDC0941 = compound: CS(=O)(=O)N1CCN(Cc2cc3nc(-c4cccc5[nH]ncc45)nc(N4CCOCC4)c3s2)CC1 [Pictilisib/GDC0941]
Tivantinib/ARQ197 = compound: O=C1NC(=O)[C@@H](c2cn3c4c(cccc24)CCC3)[C@@H]1c1c[nH]c2ccccc12 [Tivantinib/ARQ197]
[2] = compound: COc1ccc2c(c1)[C@]1(C[C@H]1c1ccc3c(/C=C/c4ccc(CN5C[C@@H](C)O[C@@H](C)C5)cc4)n[nH]c3c1)C(=O)N2
Volasertib/BI6727 = compound: CC[C@@H]1C(=O)N(C)c2cnc(Nc3ccc(C(=O)N[C@H]4CC[C@H](N5CCN(CC6CC6)CC5)CC4)cc3OC)nc2N1C(C)C [Volasertib/BI6727]
Neratinib/HKI272 [3] = compound: T1, CCOc1cc2ncc(C#N)c(Nc3ccc(OCc4ccccn4)c(Cl)c3)c2cc1NC(=O)/C=C/CN(C)C [Neratinib/HKI272]
Ceritinib/LDK378 = compound: Cc1cc(Nc2ncc(Cl)c(Nc3ccccc3S(=O)(=O)C(C)C)n2)c(OC(C)C)cc1C1CCNCC1 [Ceritinib/LDK378]
BSJ-03-123 [4] = compound: T2, CC(=O)c1c(C)c2cnc(Nc3ccc(N4CCN(CCOCCOCCOCCNC(=O)COc5cccc6c5C(=O)N(C5CCC(=O)NC5=O)C6=O)CC4)cn3)nc2n(C2CCCC2)c1=O [BSJ-03-123]
LEE011/Ribociclib [5] = compound: T3, CN(C)C(=O)c1cc2cnc(Nc3ccc(N4CCNCC4)cn3)nc2n1C1CCCC1 [LEE011/Ribociclib]
INK128/MLN0128 = compound: CC(C)n1nc(-c2ccc3oc(N)nc3c2)c2c(N)ncnc21 [INK128/MLN0128]
Paclitaxel = compound: CC(=O)O[C@H]1C(=O)[C@@]2(C)[C@H]([C@H](OC(=O)c3ccccc3)[C@]3(O)C[C@H](OC(=O)[C@H](O)[C@@H](NC(=O)c4ccccc4)c4ccccc4)C(C)=C1C3(C)C)[C@]1(OC(C)=O)CO[C@@H]1C[C@@H]2O [Paclitaxel]
ABT-737 = compound: CN(C)CC[C@H](CSc1ccccc1)Nc1ccc(S(=O)(=O)NC(=O)c2ccc(N3CCN(Cc4ccccc4-c4ccc(Cl)cc4)CC3)cc2)cc1[N+](=O)[O-] [ABT-737]
THZ531 = compound: CN(C)C/C=C/C(=O)Nc1ccc(C(=O)N2CCC[C@@H](Nc3ncc(Cl)c(-c4c[nH]c5ccccc45)n3)C2)cc1 [THZ531]
[6] = compound: CCN1CCN(Cc2ccc(Nc3ncc(F)c(-c4cc(F)c5nc(C)n(C(C)C)c5c4)n3)nc2)CC1; assay: GR value, 72 h; higher = faster growth (1 = untreated, <0 = killing);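 note: breast cancer and non-malignant breast epithelial lines, nine half-log doses, viable cells counted by Hoechst and LIVE/DEAD dye imaging versus time-zero plates and DMSO controls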
[7] = compound: CCc1cnn2c(NCc3ccc[n+]([O-])c3)cc(N3CCCC[C@H]3CCO)nc12; assay: as above
Neratinib/HKI272 [8] = compound: T1, Neratinib/HKI272; assay: as above
BSJ-03-123 [9] = compound: T2, BSJ-03-123; assay: as above
LEE011/Ribociclib [10] = compound: T3, LEE011/Ribociclib; assay: as above
YKL-5-124 = compound: C=CC(=O)Nc1ccc(C(=O)Nc2[nH]nc3c2CN(C(=O)N[C@H](CN(C)C)c2ccccc2)C3(C)C)cc1 [YKL-5-124]; assay: as above
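Throughout, for GR50, 72 h: breast cancer and non-malignant breast epithelial cell lines, Deep Dye Drop or Dye Drop imaging, nine half-log doses, GR normalized to time-zero plates and DMSO-only controls.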

Cell Line: HCC1395
- GR50, 72 h [1]: 0.112 µM
- GR50, 72 h (Taselisib/GDC0032): 2.14 µM
- GR50, 72 h (Pictilisib/GDC0941): 1.43 µM
- GR50, 72 h (Tivantinib/ARQ197): 0.481 µM
- GR50, 72 h [2]: 0.00377 µM
- GR50, 72 h (Volasertib/BI6727): 0.00321 µM
- GR50, 72 h (Neratinib/HKI272 [3]): 0.958 µM
- GR50, 72 h (Ceritinib/LDK378): 1.6 µM
- GR50, 72 h (BSJ-03-123 [4]): 1.12 µM
- GR50, 72 h (LEE011/Ribociclib [5]): 3.67 µM
- GR50, 72 h (INK128/MLN0128): 0.0108 µM
- GR50, 72 h (Paclitaxel): 0.00388 µM
- GR50, 72 h (ABT-737): > 10 µM
- GR50, 72 h (THZ531): 0.0785 µM
- GR value ([6]; 0.001 µM): 0.922 GR
- GR value ([6]; 0.003162 µM): 0.928 GR
- GR value ([6]; 0.01 µM): 0.734 GR
- GR value ([6]; 0.03162 µM): 0.594 GR
- GR value ([6]; 0.1 µM): 0.387 GR
- GR value ([6]; 0.3162 µM): 0.361 GR
- GR value ([6]; 1 µM): 0.283 GR
- GR value ([6]; 3.162 µM): 0.0357 GR
- GR value ([6]; 10 µM): -0.543 GR
- GR value ([7]; 0.0001 µM): 1.09 GR
- GR value ([7]; 0.0003162 µM): 1.1 GR
- GR value ([7]; 0.001 µM): 1.05 GR
- GR value ([7]; 0.003162 µM): 1.04 GR
- GR value ([7]; 0.01 µM): 0.649 GR
- GR value ([7]; 0.03162 µM): -0.319 GR
- GR value ([7]; 0.1 µM): -0.482 GR
- GR value ([7]; 0.3162 µM): -0.507 GR
- GR value ([7]; 1 µM): -0.488 GR
- GR value (Neratinib/HKI272 [8]; 0.0003162 µM): 1.05 GR
- GR value (Neratinib/HKI272 [8]; 0.001 µM): 1.07 GR
- GR value (Neratinib/HKI272 [8]; 0.003162 µM): 1.14 GR
- GR value (Neratinib/HKI272 [8]; 0.01 µM): 1 GR
- GR value (Neratinib/HKI272 [8]; 0.03162 µM): 1.06 GR
- GR value (Neratinib/HKI272 [8]; 0.1 µM): 0.916 GR
- GR value (Neratinib/HKI272 [8]; 0.3162 µM): 0.741 GR
- GR value (Neratinib/HKI272 [8]; 1 µM): 0.521 GR
- GR value (Neratinib/HKI272 [8]; 3.162 µM): 0.0073 GR
- GR value (BSJ-03-123 [9]; 0.001 µM): 0.847 GR
- GR value (BSJ-03-123 [9]; 0.003162 µM): 0.925 GR
- GR value (BSJ-03-123 [9]; 0.01 µM): 0.769 GR
- GR value (BSJ-03-123 [9]; 0.03162 µM): 0.767 GR
- GR value (BSJ-03-123 [9]; 0.1 µM): 0.774 GR
- GR value (BSJ-03-123 [9]; 0.3162 µM): 0.692 GR
- GR value (BSJ-03-123 [9]; 1 µM): 0.572 GR
- GR value (BSJ-03-123 [9]; 3.162 µM): 0.534 GR
- GR value (BSJ-03-123 [9]; 10 µM): -0.188 GR
- GR value (LEE011/Ribociclib [10]; 0.001 µM): 0.88 GR
- GR value (LEE011/Ribociclib [10]; 0.003162 µM): 0.843 GR
- GR value (LEE011/Ribociclib [10]; 0.01 µM): 0.691 GR
- GR value (LEE011/Ribociclib [10]; 0.03162 µM): 0.847 GR
- GR value (LEE011/Ribociclib [10]; 0.1 µM): 0.657 GR
- GR value (LEE011/Ribociclib [10]; 0.3162 µM): 0.674 GR
- GR value (LEE011/Ribociclib [10]; 1 µM): 0.569 GR
- GR value (LEE011/Ribociclib [10]; 3.162 µM): 0.553 GR
- GR value (LEE011/Ribociclib [10]; 10 µM): 0.415 GR
- GR value (YKL-5-124; 0.001 µM): 0.63 GR
- GR value (YKL-5-124; 0.003162 µM): 0.375 GR
- GR value (YKL-5-124; 0.01 µM): 0.275 GR
- GR value (YKL-5-124; 0.03162 µM): 0.158 GR
- GR value (YKL-5-124; 0.1 µM): 0.0856 GR
- GR value (YKL-5-124; 0.3162 µM): 0.0979 GR
- GR value (YKL-5-124; 1 µM): 0.0594 GR
- GR value (YKL-5-124; 3.162 µM): -0.0428 GR
- GR value (YKL-5-124; 10 µM): -0.311 GR
